# Source: PubChem BioAssay (NCI)
# Where “and” joins values, the source holds several entries; their conditions need not be identical. Equal entries are not always repeated.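 Exposure lasted 48 hours, with cells grown in 96-well plates and compounds tested at five concentrations. At the GI50, growth is halved. TGI: concentration producing complete growth inhibition.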
# Assays:
# Experiment in all cases: NCI-60 cell line screen, 48 h
# OVCAR-3 ovarian = test system: OVCAR-3 ovarian
# COLO 205 colon = test system: COLO 205 colon
# SF-268 CNS = test system: SF-268 CNS
# K-562 leukemia = test system: K-562 leukemia
# NCI-H226 lung = test system: NCI-H226 lung
# KM12 colon = test system: KM12 colon
# SK-MEL-28 melanoma = test system: SK-MEL-28 melanoma
# SF-539 CNS = test system: SF-539 CNS
# HCT-116 colon = test system: HCT-116 colon
# SK-OV-3 ovarian = test system: SK-OV-3 ovarian
# HOP-62 NSCLC = test system: HOP-62 NSCLC
# HS 578T breast = test system: HS 578T breast
# PC-3 prostate = test system: PC-3 prostate
# NCI-H522 lung = test system: NCI-H522 lung
# SF-295 CNS = test system: SF-295 CNS
# U251 CNS = test system: U251 CNS
# NCI/ADR-RES ovarian = test system: NCI/ADR-RES ovarian
# MALME-3M melanoma = test system: MALME-3M melanoma
# A549 NSCLC = test system: A549 NSCLC
Compound,TGI (OVCAR-3 ovarian) [µM],TGI (COLO 205 colon) [µM],TGI (SF-268 CNS) [µM],TGI (K-562 leukemia) [µM],TGI (NCI-H226 lung) [µM],TGI (KM12 colon) [µM],TGI (SK-MEL-28 melanoma) [µM],TGI (SF-539 CNS) [µM],TGI (HCT-116 colon) [µM],TGI (SK-OV-3 ovarian) [µM],TGI (HOP-62 NSCLC) [µM],TGI (HS 578T breast) [µM],TGI (PC-3 prostate) [µM],TGI (NCI-H522 lung) [µM],TGI (SF-295 CNS) [µM],TGI (U251 CNS) [µM],TGI (NCI/ADR-RES ovarian) [µM],TGI (MALME-3M melanoma) [µM],TGI (A549 NSCLC) [µM],GI50 (KM12 colon)
Cc1cccc(/C=N/NC(=S)NCCc2ccccn2)n1,> 100,> 100,> 100,> 100,66.3,> 100,> 100,> 73.3,> 100,43.5,> 75.1,> 100,> 100,> 100,> 100,92.1,> 73.7,> 100,> 100,
CCN(CC)c1ccc2cc(-c3nnc(-c4ccccc4)o3)c(=O)oc2c1,37.1,> 100,> 100,> 100,> 70.7,> 100,> 100,> 37.5,> 100,21.2,> 74.1,> 100,> 100,> 100,> 100,> 100,> 100,> 100,> 100,
C=CCNC1=C2C[C@@H](C)C[C@@H](OC)[C@@H](OC(=O)CCCN)[C@H](C)/C=C(\C)[C@@H](OC(N)=O)[C@H](OC)/C=C\C=C(/C)C(=O)NC(=CC1=O)C2=O,32.8,13.6,30.7,> 100,36.3,19.2,41.9,29.9,52.9,28.7,18.9,49.5,29.1,26.4,31.6,> 50.4,> 100,27.8,32.8,
CC1=C(Br)C(Br)=C(C)S1=O,23.9,5.82,> 100,> 100,50.2,36.2,41.9,27.7,18.2,65.5,42.1,> 100,48.8,23.8,49.6,26,> 100,39.3,79.8,
NC(CCC(=O)NC(CSC(=O)N(O)c1ccc(Br)cc1)C(=O)NCC(=O)O)C(=O)O (centres undefined),> 100,> 100,> 100,> 100,> 100,> 100,> 100,> 100,> 100,> 100,> 100,> 50,> 50,> 100,> 100,> 100,> 50,> 100,> 100,> 100 µM and 45 µM
COc1ccc(CCNC2=CC(=O)c3ncccc3C2=O)cc1OC,5.12,3.23,34.9,8.28,3.19,> 75.2,2.69,4.73,10.2,24.4,7.9,5.32,23.4,8.36,2.21,14,9.32,2.03,2.51,
COn1cc(C=O)c2ccccc21,> 100,> 100,> 100,> 100,> 84.9,> 56.5,> 100,> 100,> 100,> 100,> 100,> 100,> 100,> 100,> 95.9,> 100,> 100,> 100,> 100,
O=C1NC(=O)C(c2c[nH]c3cc(Br)ccc23)=C1c1cn(C(c2ccccc2)(c2ccccc2)c2ccccc2)cn1,> 100,27.4,33.1,45.9,19.3,> 100,92.6,37.9,23.6,> 100,83.9,> 100,50.4,34,> 100,24.7,> 100,56.8,27.3,
COc1cccc(OC)c1/C=C1\OC(=O)c2cccc(OC)c21,13.5,30.9,> 100,> 100,> 29.5,> 100,> 100,6.21,> 100,> 100,56,26.7,> 100,12.2,> 28.2,> 100,> 100,> 95.5,> 100,
Cc1ccc2nc(-c3ccc(N)c(I)c3)sc2c1,> 100,30.9,88.7,> 100,40.6,56.1,> 100,68.3,> 100,> 100,> 100,> 100,60.6,39.2,44.9,98.6,> 100,> 100,58.7,
O=C(NCCCNC(=O)c1ccc2c(O)c(O)ccc2c1)c1ccc2c(O)c(O)ccc2c1,56.5,50.6,58.1,> 78.7,> 100,39.7,> 100,> 100,> 94.4,> 100,48.1,56.1,> 100,48.5,38.2,64.4,> 100,> 100,> 100,
CC1(C)OCC2OC3(c4nc(C#N)c(N)o4)OC(C)(C)OC3C2O1 (centres undefined),> 100,> 100,> 100,> 100,> 100,> 100,> 100,> 100,> 100,> 100,> 100,> 100,> 100,> 100,> 100,> 100,> 100,> 100,> 100,
